Laboratory results taken from patent US20110151258A1, “PREPARATION OF RANOLAZINE” (DR. REDDY'S LABORATORIES LTD., priority 2008, published 2011).

Key:
Assay type in all cases: physicochemical
[1] = Particle size distribution by light scattering (Malvern Master Sizer 2000); settings: for Particle size distribution: D10: 10th volume percentile particle size; for Particle size distribution: D50: 50th volume percentile particle size; for Particle size distribution: D90: 90th volume percentile particle size
Description: Particle size distributions of ranolazine particles may be measured by any technique known in the art. For example, particle size distributions of ranolazine particles may be measured using light scattering equipment, such as, for example, a Malvern Master Sizer 2000 from Malvern Instruments Limited, Malvern, Worcestershire, United Kingdom (helium neon laser source, ranolazine suspended in light liquid paraffin, size range: 0.01 μm to 3000 μm).

[2] = Specific surface area and span by light scattering (Malvern method); settings: for Specific surface area: method not stated at the place; for span: particle size distribution span
Description: (§1) In an embodiment, the present application provides a pharmaceutical composition comprising ranolazine having a specific surface area more than about 0.1 m^2/g, or more than about 0.5 m^2/g, or more than about 1 m^2/g, or more than about 2 m^2/g, or more than about 3 m^2/g, or more than about 5 m^2/g. “Specific surface area” as used herein, unless otherwise defined refers to the total particle surface […]. The specific surface area of ranolazine of the present invention may be measured by a BET (Brunauer, Emmett and Teller) specific surface method, such as using a Micromeritics Gemini surface area analyzer, model 2365. Samples for analysis are degassed at 40° C. under reduced pressure and the determination of the adsorption of nitrogen gas at 77° K may be measured for relative pressures in the range of 0.05-0.3. Specific surface area and span of ranolazine of the present application may be measured by using light scattering equipment, such as, for example, a Malvern Master Sizer 2000 (helium neon laser source, ranolazine suspended in light liquid paraffin, size range: 0.01 μm to 3000 μm).

[3] = Specific surface area by BET method
Description: as §1

[4] = Bulk density (USP Test 616, method 2)
Description: In an embodiment, the present application provides ranolazine having bulk densities less than about 0.8 g/mL, or less than about 0.5 g/mL, or less than about 0.3 g/mL. Bulk density may be determined using Test 616 “Bulk Density and Tapped Density,” as in United States Pharmacopoeia 29, United States Pharmacopeial Convention, Inc., Rockville, Md., 2005, in method 2.

| Particle size distribution: D10 [1] [μm] | Particle size distribution: D50 [1] [μm] | Particle size distribution: D90 [1] [μm] | Specific surface area [2] [m^2/g] | span [2] | specific surface area by BET method [3] [m^2/g] | Specific surface area by Malvern method [2] [m^2/g] | bulk density after tapping ([4]; after tapping) [g/mL] | bulk density before tapping ([4]; before tapping) [g/mL] | SMILES |
| --- | --- | --- | --- | --- | --- | --- | --- | --- | --- |
| 5.026 | 18.770 | 39.137 | – | 1.817 | 0.46 | 1.63 | – | – | COc1ccccc1OCC(O)CN1CCN(CC(=O)Nc2c(C)cccc2C)CC1 (stereo not shown) [Example 16, Ranolazine] |
| 1.324 | 5.140 | 11.116 | – | 1.905 | 2.54 | 1.99 | – | – | COc1ccccc1OCC(O)CN1CCN(CC(=O)Nc2c(C)cccc2C)CC1 (stereo not shown) [Example 17, Ranolazine] |

The remaining lines, values behind:

| SMILES | Particle size distribution: D10 [1] [μm] | Particle size distribution: D50 [1] [μm] | Particle size distribution: D90 [1] [μm] | Specific surface area [2] [m^2/g] | span [2] | specific surface area by BET method [3] [m^2/g] | Specific surface area by Malvern method [2] [m^2/g] | bulk density after tapping ([4]; after tapping) [g/mL] | bulk density before tapping ([4]; before tapping) [g/mL] |
| --- | --- | --- | --- | --- | --- | --- | --- | --- | --- |
| COc1ccccc1OCC(O)CN1CCN(CC(=O)Nc2c(C)cccc2C)CC1 (stereo not shown) [Example 14, Ranolazine] | 6.311 | 22.490 | 47.539 | 0.539 | 1.833 | – | – | – | – |
| COc1ccccc1OCC(O)CN1CCN(CC(=O)Nc2c(C)cccc2C)CC1 (stereo not shown) [Example 15, Ranolazine] | 5.272 | 18.656 | 57.748 | 0.655 | 2.813 | – | – | – | – |
| COc1ccccc1OCC(O)CN1CCN(CC(=O)Nc2c(C)cccc2C)CC1 (stereo not shown) [Example 18, Ranolazine] | 4.420 | 16.147 | 30.439 | 0.705 | 1.611 | – | – | 0.477 | 0.353 |
| COc1ccccc1OCC(O)CN1CCN(CC(=O)Nc2c(C)cccc2C)CC1 (stereo not shown) [Example 19, Ranolazine] | 13.262 | 41.574 | 89.060 | 0.291 | 1.823 | – | – | – | – |
